Assay results: patent publication US20250072423A1, “THIOPHENE ACETIC ACID FOR PLANT GROWTH REGULATION” (priority 2023, published 2025)

What was measured:
[1] = tested on: tomato cotyledon explants; assay: Shoot regeneration from tomato cotyledon explants with 1 mg/L BAP (Experiment 3); type: cell-based, tomato cultivar Roma VF
From the text: The sterilized seeds were germinated on half-strength Murashige and Skoog (MS) medium in vitro. Cotyledons from 10-day old seedlings before first true leaves emerged were used as starting explants in all the experiments. The base and tip of the cotyledons were excised and the explants were transferred with the abaxial surface in contact with the culture medium. The basic culture medium consists of MS medium with vitamins supplemented with 30 g/L sucrose and gelled with 0.8% agar, and the pH of the medium was adjusted to 5.8±0.2. […] All experiments were conducted with at least three replicates of 10 explants each.
To analyse the effects on shoot regeneration, the basic media was supplemented with 1 mg/L BAP and different concentrations of TAA, IAA, NAA, IBA and 2,4 D (0.05, 0.1, 0.5, 1.0 and 2.0 mg/L) individually. Since there are no previous reports on suitable concentration ranges for TAA in tomato regeneration, concentrations at 50.0, 100.0, 200.0 and 300.0 mg/L were analysed additionally for TAA.

[2] = tested on: tobacco leaf explants; assay: Shoot organogenesis from tobacco leaf explants in vitro (Experiment 4); type: cell-based, Nicotiana tabacum L. cv. Petit Havana SRI; conditions: 8 weeks
[3] = tested on: auxin-response promoter DR5
Procedure: Artificial auxin-response promoter DR5 that contains a minimal 35S promoter fused to 9 repeats of an AuxRE with strict auxin specificity and responsive to only active auxins is used to indirectly visualize auxin in plants.
To further analyze the ability of TAA to induce an auxin response in tobacco, seedlings from transgenic tobacco plants expressing reporter gene RFP (red fluorescent protein gene) under the control of DR5 promoter were treated with different concentrations of TAA and compared the pattern of RFP fluorescence to that generated by equimolar concentration of other reported auxins over time.
Induction of an auxin response by TAA was analyzed by detecting the expression of fluorescent reporter gene under the control of auxin response elements (AuxRE) in transgenic tobacco. Plant transformation vector DR5rev::erRFP carrying DsRED reporter gene under an auxin-responsive promoter was obtained from addgene (www.addgene.org, plasmid ID. 61011). The plasmid was introduced into the Agrobacterium strain LBA4404, using freeze-thaw transformation. Transgenic plants were selected on a medium containing 25 mg/L hygromycin and then verified by PCR (polymerase chain reaction). The rooted plants were grown in soil and PCR positive tobacco seedlings were used in further experiments.

[4] = tested on: WT A. thaliana seedlings; assay: Root gravitropism of WT Arabidopsis seedlings (Experiment 8); type: in vivo
Procedure: Arabidopsis Columbia-0 wild type (WT) was used for assessing the effect of TAA on root growth and its effects on the expression of auxin-responsive genes. Seeds of A. thaliana were surface sterilized by suspending in 70% ethanol for 1 minute, followed by treatment with 10% bleach for 20 minutes. After thorough washing with sterile distilled water, the sterilized seeds were plated onto germination medium (half-strength Murashige and Skoog basal medium with vitamins (1/2 MS) medium supplemented with 1% sucrose and 0.7% plant agar) for germination. Germination was initiated by incubating the seeds in darkness at 5° C. for 2 days, followed by transfer to a light environment at 22° C. with a photoperiod of 16-h light/8-h dark for further growth. Stock solutions of TAA were prepared in DMSO (dimethyl sulfoxide). In control treatments, DMSO was used in equal amounts as present in the greatest concentration of TAA tested.
To analyze the effect of TAA on gravitropism, WT A. thaliana seeds were cultured on 1/2 MS medium for 8 days. Uniform seedlings were then selected and vertically grown in germination medium supplemented with different concentrations of TAA (1, 2, 5, 10, and 25 μM) for 24 h. Seedlings grown on media supplemented with DMSO were used as control. The plates were then rotated clockwise 90° to make the root parallel to the ground. The seedlings were allowed to grow for 73 h and the plates were photographed at different intervals. Image J software was used to measure the curvature of 16 plants each in the control and treatment groups.

[5] = tested on: AtPIN1 (AT1G73590); assay: qRT-PCR of early auxin-responsive gene AtPIN1 (Experiment 9); type: in vivo, A. thaliana; conditions: 10 μM TAA, after 6 hours
Procedure: (§1) To analyze TAA responsive genes in Arabidopsis, WT Arabidopsis seeds were germinated as described and 14-day-old uniform-looking seedlings were initially acclimatized in liquid germination medium for 2 hours before transferring to medium containing different concentrations of TAA (5 and 10 μM). Seedlings in media supplemented with DMSO were used as control. Five random seedlings were selected and considered as one sample and three samples from both control and treatments were flash frozen in liquid nitrogen and total RNA was isolated using a TRIzol reagent (ThermoFisher Scientific, Cat #15596026).
(§2) Expression levels of seven previously reported early auxin-responsive genes were verified by qRT-PCR (quantitative reverse transcription polymerase chain reaction). RNA reverse transcription was performed using QuantiTect Reverse Transcription Kit (Qiagen). Three biological replicates and three technical replicates were used for all qRT-PCRs. Arabidopsis actin gene (AT3G18780) was used as internal reference.

[6] = tested on: AtGH3.3 (AT2G23170); assay: qRT-PCR of early auxin-responsive gene AtGH3.3 (Experiment 9); type: in vivo, A. thaliana; conditions: 5 and 10 μM TAA, concentration and time-dependent
Procedure: as §1, §2

[7] = tested on: AtIAA5 (AT1G15580); assay: qRT-PCR of early auxin-responsive gene AtIAA5 (Experiment 9); type: in vivo, A. thaliana; conditions: 5 and 10 μM TAA
Procedure: as §1, §2

[8] = tested on: AtIAA29 (AT4G32280); assay: qRT-PCR of early auxin-responsive gene AtIAA29 (Experiment 9); type: in vivo, A. thaliana; conditions: 5 and 10 μM TAA
Procedure: as §1, §2

[9] = tested on: AtLBD29, AT3G58190; assay: qRT-PCR of early auxin-responsive gene AtLBD29 (Experiment 9); type: in vivo, A. thaliana; conditions: 5 and 10 μM TAA, both time points
Procedure: as §1, §2

For `O=C(O)Cc1ccsc1` [TAA], the “time to necrosis of explants” value ([1]; 300 mg/L with 1 mg/L BAP) was no more than 7 days, the survival of explants ([1]; 300 mg/L with 1 mg/L BAP, by Day 28) was “all explants were dead” and the shoot organogenesis ([1]; 50.0, 100.0 and 200.0 mg/L with 1 mg/L BAP) was “did not show any shoot or root formation”. The “number of shoots regenerated per explant versus basic shoot regeneration media” value ([2]; 1 mg/L TAA with 2 mg/L kinetin) was 3 times, the “total number of shoots regenerated versus basic shoot regeneration media” value ([2]; 1 mg/L TAA with 2 mg/L kinetin) was 3 times and the “number of shoots regenerated per explant versus basic shoot regeneration media” value ([2]; 2 mg/L TAA with 2 mg/L kinetin) was 3 times. The “total number of shoots regenerated versus basic shoot regeneration media” value ([2]; 2 mg/L TAA with 2 mg/L kinetin) was 3 times, the “number of regenerated shoots versus basic shoot regeneration media” value ([2]; 3 mg/L TAA with 2 mg/L kinetin) was “more than double” and the “number of regenerated shoots versus basic shoot regeneration media” value ([2]; 5 mg/L TAA with 2 mg/L kinetin) was “more than double”. The “effect on shoot regeneration and size of regenerated shoots” value ([2]; TAA added to 3% MS + 2 mg/L kinetin) was “positive effect”, the “RFP after short-term treatment and withdrawal” value ([3]; 48 h after TAA withdrawal) was “detectable in roots even after 48 h of TAA withdrawal” and the “time to auxin reporter gene expression in primary root tips” value ([3]; all concentrations of TAA analyzed) was no more than 30 min. The “spread of RFP fluorescence” value ([3]; by 48 h of treatment) was “RFP signal was observable in secondary roots”, the “RFP signal at the root tip with increasing TAA concentrations” value ([3]; dose dependence) was “gradually increased” and the “growth angle of primary roots” value ([4]; 50 h after treatment (FIG. 8b)) was roughly 90 °. The “growth angle of primary roots” value ([4]; higher concentrations (5, 10 and 25 μM)) was “did not show a marked change in growth angle”, the “rate of gravitropic response” value ([4]; lower concentrations (1 and 2 μM), plates rotated 90°) was “enhanced the rate of gravitropic response” and the AtPIN1 gene expression [5] was “nearly five-fold”. The AtGH3.3 upregulation [6] was “over 70 fold”, the AtIAA5 expression [7] was “induction” and the AtIAA29 expression [8] was “induction”. For the same compound, the AtLBD29 expression [9] was “upregulation”.
